Experimental data: PubChem BioAssay AID328 (DTP/NCI, 2004)
Values joined by “and” are separate entries in the source; they are usually repeats but may differ in a detail not shown here. Equal entries are not always repeated. Toxic doses and inconclusive results are not listed.

System: BDF1 mice, P388 leukemia ip, median survival T/C
Assay: NCI In Vivo Anticancer Drug Screen. Data for tumor model P388 Leukemia (intraperitoneal) in B6D2F1 (BDF1) mice
Settings: endpoint: median survival time, higher = longer survival
Outline: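 Vehicle-dosed animals serve as the reference; survival of compound-dosed, tumour-implanted mice is divided by it.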

[1] = dose: 100.0 mg/kg/injection, schedule: Q04DX003 (ip), vehicle: Klucel (hydroxypropylcellulose) (HPC)
[2] = dose: 200.0 mg/kg/injection, schedule: Q04DX003 (ip), vehicle: Klucel (hydroxypropylcellulose) (HPC)
[3] = dose: 100.0 mg/kg/injection, schedule: Q04DX003 (ip), vehicle: saline with Tween-80
[4] = dose: 200.0 mg/kg/injection, schedule: Q04DX003 (ip), vehicle: saline with Tween-80
[5] = dose: 400.0 mg/kg/injection, schedule: Q04DX003 (ip), vehicle: saline with Tween-80
[6] = dose: 5.0 mg/kg/injection, schedule: Q01DX009 (ip), vehicle: saline
[7] = dose: 12.5 mg/kg/injection, schedule: Q01DX009 (ip), vehicle: saline with Tween-80
[8] = dose: 25.0 mg/kg/injection, schedule: Q01DX009 (ip), vehicle: saline with Tween-80
[9] = dose: 50.0 mg/kg/injection, schedule: Q01DX009 (ip), vehicle: saline with Tween-80
[10] = dose: 100.0 mg/kg/injection, schedule: Q01DX009 (ip), vehicle: saline with Tween-80
[11] = dose: 200.0 mg/kg/injection, schedule: Q01DX009 (ip), vehicle: saline with Tween-80

With CC(=O)NCCCCCC(=O)O the T/C (dose: 100.0 mg/kg/injection, schedule: Q01DX009 (ip), vehicle: Klucel (hydroxypropylcellulose) (HPC)) was 90 % of control, the T/C [1] was 95 % of control and the T/C (dose: 200.0 mg/kg/injection, schedule: Q01DX009 (ip), vehicle: Klucel (hydroxypropylcellulose) (HPC)) was 90 % of control. For the same compound, the T/C [2] was 95 % of control, the T/C (dose: 400.0 mg/kg/injection, schedule: Q01DX009 (ip), vehicle: Klucel (hydroxypropylcellulose) (HPC)) was 109 % of control and the T/C (dose: 400.0 mg/kg/injection, schedule: Q04DX003 (ip), vehicle: Klucel (hydroxypropylcellulose) (HPC)) was 109 % of control.
O=C(c1ccccc1Br)C(Br)C(Br)c1ccccc1 (configuration not stated) was tested, and the T/C [1] was 120 % of control and the T/C [2] was 110 % of control.
In the case of C=C1C(=O)OC2/C=C(\C)CC(O)/C=C(/C)CC(OC(=O)C3(C)OC3C)C12 (configuration not stated), the T/C (dose: 100.0 mg/kg/injection, schedule: Q04DX002 (ip), vehicle: Klucel (hydroxypropylcellulose) (HPC)) was 111 % of control and the T/C (dose: 200.0 mg/kg/injection, schedule: Q04DX002 (ip), vehicle: Klucel (hydroxypropylcellulose) (HPC)) was 113 % of control.
With C=CC(CO)N1CC1 (configuration not stated) the T/C (dose: 6.25 mg/kg/injection, schedule: Q04DX003 (ip), vehicle: saline with Tween-80) was 100 % of control, the T/C (dose: 12.5 mg/kg/injection, schedule: Q04DX003 (ip), vehicle: saline with Tween-80) was 112 % of control and the T/C (dose: 25.0 mg/kg/injection, schedule: Q04DX003 (ip), vehicle: saline with Tween-80) was 104 % of control.
With C=C(C(N)=O)c1cc(Cl)ccc1Cl the T/C (dose: 100.0 mg/kg/injection, schedule: Q01DX009 (ip), vehicle: water) was 110 % of control, the T/C [3] was 100 % of control and the T/C (dose: 200.0 mg/kg/injection, schedule: Q01DX009 (ip), vehicle: water) was 100 % of control. The T/C [4] was 95 % of control, the T/C (dose: 400.0 mg/kg/injection, schedule: Q01DX009 (ip), vehicle: water) was 100 % of control and the T/C [5] was 95 % of control.
CSCSCC(CO)NS(=O)(=O)c1ccc(C)cc1 (configuration not stated) was tested, and the T/C [3] was 100 % of control, the T/C [4] was 100 % of control and the T/C [5] was 100 % of control.
For CC(=O)Oc1c(Cl)c(Cl)c(Cl)c(Cl)c1Cl, the T/C (dose: 100.0 mg/kg/injection, schedule: Q01DX001 (ip), vehicle: saline with Tween-80) was 115 % of control, the T/C (dose: 200.0 mg/kg/injection, schedule: Q01DX001 (ip), vehicle: saline with Tween-80) was 95 % of control and the T/C (dose: 400.0 mg/kg/injection, schedule: Q01DX001 (ip), vehicle: saline with Tween-80) was 100 % of control.
In the case of CC(O)C#N (configuration not stated), the T/C (dose: 1.25 mg/kg/injection, schedule: Q01DX009 (ip), vehicle: saline) was 108 % of control, the T/C (dose: 2.5 mg/kg/injection, schedule: Q01DX009 (ip), vehicle: saline) was 101 % of control and the T/C [6] was 101 % of control.
For COc1cc(NS(C)(=O)=O)ccc1Nc1c2cccc(C)c2nc2c(C)cccc12, the T/C (dose: 1.57 mg/kg/injection, schedule: Q01DX009 (ip), vehicle: saline) was 176 % of control, the T/C (dose: 3.13 mg/kg/injection, schedule: Q01DX009 (ip), vehicle: saline with Tween-80) was 150 % of control and the T/C (dose: 3.13 mg/kg/injection, schedule: Q01DX009 (ip), vehicle: saline) was 201 % of control. The T/C (dose: 6.25 mg/kg/injection, schedule: Q01DX009 (ip), vehicle: saline with Tween-80) was 169 % of control, the T/C [7] was 186 % of control and the T/C (dose: 14.6 mg/kg/injection, schedule: Q04DX003 (ip), vehicle: saline) was 163 % of control. For the same compound, the T/C (dose: 22.0 mg/kg/injection, schedule: Q04DX003 (ip), vehicle: saline) was 163 % of control, the T/C [8] was 231 % of control and the T/C (dose: 33.0 mg/kg/injection, schedule: Q04DX003 (ip), vehicle: saline) was 159 % of control. The T/C (dose: 50.0 mg/kg/injection, schedule: Q04DX003 (ip), vehicle: saline) was 227 % of control, the T/C [3] was 272 % of control and the T/C [4] was 109 % of control.
With Cc1cc(O)c2c3c(ccc2c1)C(=O)c1c(O)cccc1C3=O the T/C (dose: 0.5 mg/kg/injection, schedule: Q01DX009 (ip), vehicle: Klucel (hydroxypropylcellulose) (HPC)) was 109 % of control, the T/C (dose: 1.0 mg/kg/injection, schedule: Q01DX009 (ip), vehicle: Klucel (hydroxypropylcellulose) (HPC)) was 110 % of control and the T/C (dose: 2.0 mg/kg/injection, schedule: Q01DX009 (ip), vehicle: Klucel (hydroxypropylcellulose) (HPC)) was 101 % of control. For the same compound, the T/C (dose: 4.0 mg/kg/injection, schedule: Q01DX009 (ip), vehicle: Klucel (hydroxypropylcellulose) (HPC)) was 101 % of control.
In the case of CC1=NNB(O)c2ccsc21, the T/C [7] was 107 % of control, the T/C [8] was 90 % of control and the T/C [9] was 96 % of control.
For COc1cc2c[n+](C)c3c4cc5c(cc4ccc3c2cc1OC)OCO5, the T/C (dose: 1.0 mg/kg/injection, schedule: Q01DX009 (ip), vehicle: water) was 150 % of control, the T/C (dose: 4.0 mg/kg/injection, schedule: Q01DX009 (ip), vehicle: saline) was 161 % of control and the T/C [6] was 185 % of control. For the same compound, the T/C (dose: 6.25 mg/kg/injection, schedule: Q01DX009 (ip), vehicle: water) was 182 % of control, the T/C (dose: 8.0 mg/kg/injection, schedule: Q01DX009 (ip), vehicle: saline) was 176 % of control and the T/C (dose: 10.0 mg/kg/injection, schedule: Q01DX005 (ip), vehicle: saline) was 154 % of control. For the same compound, the T/C (dose: 10.0 mg/kg/injection, schedule: Q01DX009 (ip), vehicle: saline) was 200 % of control, the T/C (dose: 10.0 mg/kg/injection, schedule: Q04DX003 (ip), vehicle: saline) was 185 % of control and the T/C (dose: 12.0 mg/kg/injection, schedule: Q01DX009 (ip), vehicle: water) was 177 % of control. For the same compound, the T/C (dose: 12.5 mg/kg/injection, schedule: Q01DX009 (ip), vehicle: water) was 204 % of control, the T/C (dose: 20.0 mg/kg/injection, schedule: Q01DX005 (ip), vehicle: saline) was 158 % of control and the T/C (dose: 20.0 mg/kg/injection, schedule: Q04DX003 (ip), vehicle: saline) was 190 % of control. The T/C (dose: 25.0 mg/kg/injection, schedule: Q01DX009 (ip), vehicle: water) was 100 % of control, the T/C (dose: 28.8 mg/kg/injection, schedule: Q04DX003 (ip), vehicle: Klucel (hydroxypropylcellulose) (HPC)) was 193 % of control and the T/C (dose: 40.0 mg/kg/injection, schedule: Q01DX005 (ip), vehicle: saline) was 183 % of control. The T/C (dose: 43.2 mg/kg/injection, schedule: Q04DX003 (ip), vehicle: Klucel (hydroxypropylcellulose) (HPC)) was 196 % of control, the T/C (dose: 48.0 mg/kg/injection, schedule: Q04DX003 (ip), vehicle: Klucel (hydroxypropylcellulose) (HPC)) was 200 % of control and the T/C (dose: 50.0 mg/kg/injection, schedule: Q04DX002 (ip), vehicle: Klucel (hydroxypropylcellulose) (HPC)) was 225 % of control and 153 % of control. For the same compound, the T/C (dose: 55.0 mg/kg/injection, schedule: Q04DX003 (ip), vehicle: other) was 172 % of control, the T/C (dose: 72.0 mg/kg/injection, schedule: Q04DX003 (ip), vehicle: Klucel (hydroxypropylcellulose) (HPC)) was 188 % of control and the T/C (dose: 80.0 mg/kg/injection, schedule: Q01DX005 (ip), vehicle: saline) was 103 % of control. For the same compound, the T/C (dose: 80.0 mg/kg/injection, schedule: Q01DX009 (ip), vehicle: saline) was 186 % of control, the T/C (dose: 80.0 mg/kg/injection, schedule: Q04DX003 (ip), vehicle: Klucel (hydroxypropylcellulose) (HPC)) was 200 % of control and the T/C (dose: 80.0 mg/kg/injection, schedule: Q04DX003 (ip), vehicle: saline) was 260 % of control. For the same compound, the T/C (dose: 92.0 mg/kg/injection, schedule: Q04DX003 (ip), vehicle: other) was 162 % of control, the T/C (dose: 120.0 mg/kg/injection, schedule: Q01DX009 (ip), vehicle: saline) was 95 % of control and the T/C (dose: 133.3 mg/kg/injection, schedule: Q04DX003 (ip), vehicle: Klucel (hydroxypropylcellulose) (HPC)) was 170 % of control. The T/C [2] was 160 % of control.
NC(=NCCCC(NC(=O)c1ccccc1)C(=O)O)NC(=O)c1ccccc1 (configuration not stated) was tested, and the T/C [9] was 103 % of control, the T/C [10] was 120 % of control and the T/C [11] was 118 % of control.
Cc1cc(O)c(C(c2ccc(N(C)C)cc2Cl)c2c(O)cc(C)[nH]c2=O)c(=O)[nH]1 was tested, and the T/C [9] was 99 % of control and the T/C [10] was 115 % of control.
With Nc1nc(-c2cccc3ccccc23)cc2ccccc12 the T/C [8] was 115 % of control, the T/C [9] was 119 % of control and the T/C [10] was 151 % of control and 182 % of control. The T/C [11] was 151 % of control.
For NC(Cc1ccc(Cl)cc1)C(=O)O (configuration not stated), the T/C (dose: 200.0 mg/kg/injection, schedule: Q01DX010 (im), vehicle: other) was 90 % of control, the T/C (dose: 400.0 mg/kg/injection, schedule: Q01DX010 (im), vehicle: other) was 90 % of control and the T/C (dose: 600.0 mg/kg/injection, schedule: Q01DX010 (im), vehicle: other) was 90 % of control.
